# Read-outs that look alike come from different tables or passages of the source.
# What was measured:
# G-361 melanoma = assay: MTT cytotoxicity, G-361 melanoma; type: cell-based, human; conditions: for IC50: MTT test, 24 h treatment, G-361 melanoma; for cytotoxic to melanoma cells (MTT test): G-361, concentration range used
# Description: (§1) Biological studies were performed on human malignant melanoma G-361 (ATCC CRL-1424) cell lines and human fibroblast BJ (ATCC® CRL-2522™) cell lines purchased from the American Type Culture Collection (ATCC, Manassas, VA USA). The G-361 cell lines were maintained in McCoy’s medium (Corning, NY, USA), and the fibroblast BJ cell line was cultured in EMEM (Corning, NY, USA). All media were supplemented with 10% heat-inactivated fetal bovine serum (PAN-Biotech, Aidenbach, Germany), 100 U/mL penicillin, 100 μg/mL streptomycin and 0.25 μg/mL amphotericin B (Sigma-Aldrich, St. Louis, MO, USA). Cultures were maintained at 37 °C in a humidified atmosphere of 95% air and 5% CO2. The experiments were performed using cells from passage 5 to 10.
# (§2) The cytotoxicity of the new compounds was evaluated against both the G-361 and BJ cell lines. Cells were seeded into 96-well plates at a density of 3 × 10^4 cells/well and 2 × 10^4 cells/well. After 24 h of incubation, when 70–80% confluence was reached, the culture medium was removed and replaced with the fresh one containing the tested compounds in the concentration range of 10, 25, 50, 75, 100, 125 and 250 μM. Cells were cultured at 37 °C in the presence of 5% air with CO2 for another 24 h. The cytotoxicity of the test compounds was evaluated by the MTT colorimetric assay, based on the ability of live cells to convert yellow soluble tetrazolium salts (3-[4,5-dimethylthiazol-2-yl]- 2,5-diphenyltetrazolium bromide, MTT) to purple insoluble formazan by cellular dehydrogenase. After 24 h of incubation with solutions of the test compounds, 4 mg/mL MTT solution (Thermo Scientific, Waltham, MA, USA) was added to the cell cultures and incubation was continued for 4 h at 37 °C. The MTT medium was then removed, and the resulting crystals were dissolved in 200 µL of DMSO. The solution was measured for absorbance at 570 nm using a Power Wave xs spectrophotometric plate reader, BioTek Instruments (Winooski, VT, USA). The experiment was performed three times with three replicates for each concentration. IC50 values were determined using the AAT Bioquest IC50 calculator.
# [1] = system: BJ normal fibroblast cell line; assay: MTT cytotoxicity, BJ normal fibroblasts; type: cell-based, human; conditions: MTT test, 24 h treatment, BJ normal fibroblasts, concentration range 10-250 µM, read-out: IC50 BJ
# Description: as §1, §2
# RP-HPLC lipophilicity = type: physicochemical; conditions: for logkW (chromatographic lipophilicity parameter): Kinetex C18, methanol-water 55-80%, extrapolated to 0% methanol; for -S HPLC (slope of linear equation): Table S3
# Description: RP-HPLC analysis was performed using a Merck-Hitachi LaChrom Elite System (Merck, Darmstadt, Germany) with diode array detector L-2455, thermostat L-2300, pump L-2130 and autosampler L-2200 with a Kinetex C18 (5µm; 150 × 4,6mm) chromatographic column (Phenomenex, Torrance, USA) as the stationary phase. The mobile phase consisted of methanol (Merck, Darmstadt, Germany) and water (double-distilled), which was degassed by use of the built-in membrane degasser. Subsequently, 5 μL methanolic solution (0.1%; m/v) of the selected samples was applied to the chromatographic column by use of a Hitachi L-2200 autosampler (LaChrom Elite, Hitachi-Merck, Darmstadt, Germany). The analysis was performed with a flow rate of 0.7 mL min^−1 in isocratic mode using various concentrations of organic modifier (methanol) in binary polar mobile phases; percentages of methanol in water were 55–80% (%, v/v) and changed by 5% per step. Chromatograms were detected at 254 nm and the temperature of the column was 25 °C. All experiments were repeated in triplicate and the final results were taken to be the arithmetic means. Dead time was measured using uracil (Calbiochem. Merck, Darmstadt, Germany).
# RP-TLC lipophilicity = type: physicochemical; conditions: for RMW (chromatographic lipophilicity parameter): RP-18 plates, methanol-water 65-95%, extrapolated to 0% methanol; for -S TLC (slope of linear equation): Table S3
# Description: RP-TLC analysis was performed using RP-18 TLC silica gel 60 F254 plates (10 × 20 cm, Merck, Darmstadt, Germany) with a DS-II chromatographic horizontal chamber (CHROMDES, Lublin, Poland). The mobile phase consisted of methanol (POCH, Gliwice, Poland) and water with the following concentrations of methanol: 65–95% (%, v/v), with a concentration change every 5%. After drying, the spots were observed under a UV lamp with a wavelength of 254 nm.
Compound,IC50 (G-361 melanoma),IC50 [1],IC50 (G-361 melanoma; Homo sapiens),logkW (chromatographic lipophilicity parameter) (RP-HPLC lipophilicity),-S HPLC (slope of linear equation) (RP-HPLC lipophilicity),RMW (chromatographic lipophilicity parameter) (RP-TLC lipophilicity),-S TLC (slope of linear equation) (RP-TLC lipophilicity),"IC50 ([1]; Homo sapiens, Fibroblast)",cytotoxic to melanoma cells (MTT test) (G-361 melanoma)
"1-[[2-(2,4-Dichlorophenoxy)acetyl]amino]-3-[4-[[[2-(2,4-dichlorophenoxy)acetyl]amino]carbamoylamino]phenyl]thiourea [PK13]",> 250 µM,> 250 µM,,,,,,,
"O=C(COc1ccc(Cl)cc1Cl)NNC(=S)Nc1ccccc1F [PK1, 1-(2,4-dichlorophenoxy)acetyl-4-(2-fluorophenyl)thiosemicarbazide]",,,> 250 µM,3.4437,4.9238,2.6706,3.1923,> 250 µM,
"O=C(COc1ccc(Cl)cc1Cl)NNC(=S)Nc1ccc([N+](=O)[O-])cc1 [PK3, 1-(2,4-dichlorophenoxy)acetyl-4-(4-nitrophenyl)thiosemicarbazide]",> 250 µM,> 250 µM,,2.7667,3.8522,2.4459,2.9474,,
"O=C(COc1ccc(Cl)cc1Cl)NNC(=S)Nc1cccc(I)c1 [PK4, 1-(2,4-dichlorophenoxy)acetyl-4-(3-iodophenyl)thiosemicarbazide]",> 250 µM,> 250 µM,,,,,,,
"O=C(COc1ccc(Cl)cc1Cl)NNC(=S)Nc1ccc(F)cc1 [PK5, 1-(2,4-dichlorophenoxy)acetyl-4-(4-fluorophenyl)thiosemicarbazide]",> 250 µM,> 250 µM,,3.8993,5.5119,2.7612,3.4335,,
"O=C(COc1ccc(Cl)cc1Cl)NNC(=S)Nc1ccc(I)cc1 [PK7, 1-(2,4-dichlorophenoxy)acetyl-4-(4-iodophenyl)thiosemicarbazide]",,,99 ± 4 µM,4.5363,5.9005,3.8527,4.4553,216 ± 76 µM,cytotoxic
"O=C(COc1ccc(Cl)cc1Cl)NNC(=S)Nc1cccc(Br)c1 [PK8, 1-(2,4-dichlorophenoxy)acetyl-4-(3-bromophenyl)thiosemicarbazide]",> 250 µM,> 250 µM,,,,,,,
"O=C(COc1ccc(Cl)cc1Cl)NNC(=S)Nc1cccc(F)c1 [PK10, 1-(2,4-dichlorophenoxy)acetyl-4-(3-fluorophenyl)thiosemicarbazide]",218 ± 5.34 µM,223 ± 7 µM,,,,,,,cytotoxic
"O=C(COc1ccc(Cl)cc1Cl)NNC(=S)Nc1ccccc1Br [PK11, 1-(2,4-dichlorophenoxy)acetyl-4-(2-bromophenyl)thiosemicarbazide]",162 ± 2 µM,217 ± 64.3 µM,,3.93,5.3438,2.7832,3.3663,,cytotoxic
"O=C(COc1ccc(Cl)cc1Cl)NNC(=S)Nc1ccc(Br)cc1 [PK12, 1-(2,4-dichlorophenoxy)acetyl-4-(4-bromophenyl)thiosemicarbazide]",,189 ± 7 µM,,4.3897,5.8565,3.5706,4.1984,,cytotoxic

# From article PMC8961551, “Potential Anticancer Agents against Melanoma Cells Based on an As-Synthesized Thiosemicarbazide Derivative” (Biomolecules, 2022)
